Active and inactive are the calls of the source. The rule behind the calls is not given here.
Tests used:
HCT-116 [1] = assay: Antimigratory activity against highly liver metastatic human HCT-116 cells assessed as downregulation of N-cadherin gene expression at 0.075 to 0.3 uM incubated for 24 hrs by RT-PCR method; type: functional, cell-based; settings: dose 0.075-0.3 µM
HCT-116 [2] = assay: Cell cycle arrest in human HCT-116 cells assessed as accumulation at Sub-G1 phase at 0.3 uM incubated for 24 hrs by RNaseA/propidium iodide staining based flow cytometry (reference value: 3.66 %); type: functional
SW480 [3] = assay: Anti-migratory activity against human SW480 cells assessed as downregulation of N-cadherin gene expression at 0.35 to 1.4 uM incubated for 24 hrs by RT-PCR assay; type: functional, cell-based; settings: dose 0.35-1.4 µM
HCT-116 [4] = assay: Cell cycle arrest in human HCT-116 cells assessed as downregulation of CDK4 protein expression at 0.075 to 0.3 uM incubated for 24 hrs by immunoblotting assay; type: functional, cell-based; settings: dose 0.075-0.3 µM
HCT-116 [5] = assay: Induction of apoptosis in human HCT-116 cells assessed as late apoptotic cells at 0.3 uM incubated for 48 hrs by Annexin V-FITC/PI staining based flow cytometry analysis (Rvb= 3.18%); type: functional
SW480 [6] = assay: Inhibition of colony formation in human SW480 cells at 0.35 to 1.4 uM incubated for 72 hrs by crystal violet staining based assay; type: functional, cell-based; settings: dose 0.35-1.4 µM, DDE = dose-dependent effect
HCT-116 [7] = assay: Antitumor activity against human HCT-116 cells assessed as upregulation of NDRG1 protein expression at 0.075 to 0.3 uM incubated for 24 hrs by immunoblotting assay; type: functional, cell-based; settings: dose 0.075-0.3 µM, DDE = dose-dependent effect
SW480 [8] = assay: Cell cycle arrest in human SW480 cells assessed as accumulation at G0/G1 phase at 0.35 uM incubated for 24 hrs by RNaseA/propidium iodide staining based flow cytometry (reference value: 54.49 %); type: functional
[9] = Toxicity in Balb/c mouse xenografted with human HCT-116 cells assessed as body weight change at 3 mg/kg,ip administrated for 18 days by 3 times per week; type: organism-based; settings: in vivo, 432 h, time 18 day
HCT-116 [10] = assay: Antimigratory activity against highly liver metastatic human HCT-116 cells assessed as downregulation of N-cadherin protein expression at 0.075 to 0.3 uM incubated for 24 hrs by immunoblotting assay; type: functional, cell-based; settings: dose 0.075-0.3 µM
HCT-116 [11] = assay: Antimigratory activity against highly liver metastatic human HCT-116 cells assessed as upregulation of NDRG1 protein expression at 0.075 to 0.3 uM incubated for 24 hrs by immunoblotting assay; type: functional, cell-based; settings: dose 0.075-0.3 µM
SW480 [12] = assay: Induction of apoptosis in human SW480 cells assessed as early apoptotic cells at 0.35 uM incubated for 48 hrs by Annexin V-FITC/PI staining based flow cytometry analysis (Rvb= 2.07%); type: functional
SW480 [13] = assay: Induction of apoptosis in human SW480 cells assessed as early apoptotic cells at 0.7 uM incubated for 48 hrs by Annexin V-FITC/PI staining based flow cytometry analysis (Rvb= 2.07%); type: functional
HCT-116 [14] = assay: Antiproliferative activity against human HCT-116 cells assessed as cell growth inhibition incubated for 72 hrs by SRB assay; type: functional, cell-based; settings: HCT-116, 72 h
HCT-116 [15] = assay: Induction of apoptosis in human HCT-116 cells assessed as necrotic cells at 0.075 uM incubated for 48 hrs by Annexin V-FITC/PI staining based flow cytometry analysis (Rvb= 0.13%); type: functional
HCT-116 [16] = assay: Induction of apoptosis in human HCT-116 cells assessed as viable cells at 0.15 uM incubated for 48 hrs by Annexin V-FITC/PI staining based flow cytometry analysis (Rvb= 94.18%); type: functional; settings: read-out: Activity
HCT-116 [17] = assay: Downregulation of cleaved caspase 8 protein expression in human HCT-116 cells with NDRG1 knockdown at 0.3 uM incubated for 24 hrs by immunoblotting assay; type: functional, cell-based
HCT-116 [18] = assay: Induction of apoptosis in human HCT-116 cells assessed as early apoptotic cells at 0.075 uM incubated for 48 hrs by Annexin V-FITC/PI staining based flow cytometry analysis (Rvb= 2.51%); type: functional
SW480 [19] = assay: Cell cycle arrest in human SW480 cells assessed as accumulation at S phase at 1.4 uM incubated for 24 hrs by RNaseA/propidium iodide staining based flow cytometry (reference value: 16.7 %); type: functional
SW480 [20] = assay: Cell cycle arrest in human SW480 cells assessed as accumulation at Sub-G1 phase at 0.7 uM incubated for 24 hrs by RNaseA/propidium iodide staining based flow cytometry (reference value: 3.2 %); type: functional
HCT-116 [21] = assay: Antitumor activity against human HCT-116 cells xenografted Balb/c mouse assessed as reduction in tumor growth at 3 mg/kg,ip administrated for 18 days by 3 times per week; type: functional; set-up: scale not given: the % may be the effect or the level left; settings: time 18 day
HCT-116 [22] = assay: Induction of apoptosis in human HCT-116 cells assessed as early apoptotic cells at 0.15 uM incubated for 48 hrs by Annexin V-FITC/PI staining based flow cytometry analysis (Rvb= 2.51%); type: functional
SW480 [23] = assay: Anti-migratory activity against human SW480 cells assessed as upregulation of E-cadherin protein expression at 0.35 to 1.4 uM incubated for 24 hrs by immunoblotting assay; type: functional, cell-based; settings: dose 0.35-1.4 µM
SW480 [24] = assay: Induction of apoptosis in human SW480 cells assessed as early apoptotic cells at 1.4 uM incubated for 48 hrs by Annexin V-FITC/PI staining based flow cytometry analysis (Rvb= 2.07%); type: functional
SW480 [25] = assay: Cell cycle arrest in human SW480 cells assessed as downregulation of CDK6 protein expression at 0.35 to 1.4 uM incubated for 24 hrs by immunoblotting assay; type: functional, cell-based; settings: dose 0.35-1.4 µM
HCT-116 [26] = assay: Cell cycle arrest in human HCT-116 cells assessed as accumulation at G0/G1 phase at 0.3 uM incubated for 24 hrs by RNaseA/propidium iodide staining based flow cytometry (reference value: 48.44 %); type: functional
SW480 [27] = assay: Induction of apoptosis in human SW480 cells assessed as upregulation of cleaved PARP expression at 1.4 uM measured at 12 to 48 hrs by immunoblotting assay; type: functional, cell-based; settings: time 12-48 hrs, TDE = time-dependent effect
HCT-116 [28] = assay: Induction of apoptosis in human HCT-116 cells assessed as downregulation of survivin expression at 0.3 uM measured at 12 to 48 hrs by immunoblotting assay; type: functional, cell-based; settings: time 12-48 hrs, TDE = time-dependent effect
HCT-116 [29] = assay: Induction of apoptosis in human HCT-116 cells assessed as late apoptotic cells at 0.15 uM incubated for 48 hrs by Annexin V-FITC/PI staining based flow cytometry analysis (Rvb= 3.18%); type: functional
HCT-116 [30] = assay: Cell cycle arrest in human HCT-116 cells assessed as accumulation at S phase at 0.3 uM incubated for 24 hrs by RNaseA/propidium iodide staining based flow cytometry (reference value: 19.94 %); type: functional
HCT-116 [31] = assay: Cell cycle arrest in human HCT-116 cells assessed as accumulation at S phase at 0.075 uM incubated for 24 hrs by RNaseA/propidium iodide staining based flow cytometry (reference value: 19.94 %); type: functional
HCT-116 [32] = assay: Antimigratory activity against highly liver metastatic human HCT-116 cells assessed as downregulation of Snail gene expression at 0.075 to 0.3 uM incubated for 24 hrs by RT-PCR method; type: functional, cell-based; settings: dose 0.075-0.3 µM
HCT-116 [33] = assay: Downregulation of cleaved PARP protein expression in human HCT-116 cells with NDRG1 knockdown at 0.3 uM incubated for 24 hrs by immunoblotting assay; type: functional, cell-based

C[C@@H]1\C=C/C=C/C=C\C=C\C=C\C(=O)C2=C(O)C(=O)C[C@@]2(C)/C=C/C=C\C=C/C(=O)NC1
Activity (HCT-116 [1]): Active | Activity (HCT-116 [2]): 5.19% | Activity (SW480 [3]): Active | Activity (HCT-116 [4]): Active | Activity (HCT-116 [5]): 14.94% | inhibition (SW480 [6]): Dde | Activity (HCT-116 [7]): Dde | Activity (SW480 [8]): 54.89% | Activity [9]: Non-Toxic | Activity (HCT-116 [10]): Active | Activity (HCT-116 [11]): Active | Activity (SW480 [12]): 2.62% | Activity (SW480 [13]): 12.31% | IC50 (HCT-116 [14]): 140 nM | Activity (HCT-116 [15]): 0.16% | viability at 0.15 µM (HCT-116 [16]): 74.9% | Activity (HCT-116 [17]): Active | Activity (HCT-116 [18]): 8.29% | Activity (SW480 [19]): 11.23% | Activity (SW480 [20]): 4.68% | Activity (HCT-116 [21]): 89% | Activity (HCT-116 [22]): 15.66% | Activity (SW480 [23]): Active | Activity (SW480 [24]): 24.26% | Activity (SW480 [25]): Active | Activity (HCT-116 [26]): 62.85% | Activity (SW480 [27]): Tde | Activity (HCT-116 [28]): Tde | Activity (HCT-116 [29]): 9.22% | Activity (HCT-116 [30]): 10.04% | Activity (HCT-116 [31]): 18.4% | Activity (HCT-116 [32]): Active | Activity (HCT-116 [33]): Active

Reference: ChEMBL document CHEMBL5215006, “Antitumor Activity of Piceamycin by Upregulation of N-Myc Downstream-Regulated Gene 1 in Human Colorectal Cancer Cells” (J Nat Prod, 2022)
